According to patent publication US8785429B2, “Dihydropyrrolonaphthyridinone compounds as inhibitors of JAK” (Takeda Pharmaceutical Company Limited, priority 2009, dated 2014):

Key:
JAK2 = target: T1, JAK2 (Homo sapiens, UniProt O60674); assay: Assay for JAK2 Inhibition (phosphorylation of FAM-labeled substrate, Caliper LC-3000); assay type: biochemical; details: −log10(IC50), IC50 is the molar concentration at 50% inhibition; read-out: JAK2 pIC50 (converted)
T1 construct: purchased Invitrogen
Protocol: (§1) A compound's ability to inhibit JAK activity may be assessed using a variety of methods, including in vitro and in vivo assays. The following in vitro assays measure a test compound's ability to inhibit JAK2- and JAK3-mediated phosphorylation of FAM-labeled JAK-specific substrates.
(§2) Purified JAK2 and JAK3 proteins were purchased from Invitrogen. JAK2 and JAK3 inhibition is determined using a black 384-well-plate format in buffer containing 50 mM HEPES, 10 mM NaCl, 10 mM MgCl2, 0.2 mM EDTA, 0.01% EDA (Brij® 35), 1 mM DTT, 0.1 mg/mL BSA at pH 7.3. Each test compound is prepared in DMSO using 2-fold serial dilutions for 11 data points and is added to the buffer so that each dilution contains 3% DMSO.
(§3) To each well is added 2 μL of 3 μM 5FAM-KKKKEEIYFFFG-NH2 and 45 μM ATP (in buffer), 2 μL of diluted test compound (3% DMSO in medium), and 2 μL of 0.6 nM JAK2 in buffer. The reaction mixture is incubated at room temperature for 60 min and is quenched by adding 50 mM HEPeX, 30 mM EDTA, and 0.1% Tx-100 (pH 7.3). To quantify the fluorescent-labeled substrate and product following reaction, the test plate is loaded on a Caliper LC-3000, which measures percent of conversion by microfluidic-based separation.
(§4) Corresponding IC50 values are calculated by non-linear curve fitting of the compound concentrations and percent of inhibition to the standard IC50 equation.

JAK3 = target: T2, JAK3 (Homo sapiens, UniProt P52333); assay: Assay for JAK3 Inhibition (phosphorylation of FAM-labeled substrate, Caliper LC-3000); assay type: biochemical; details: −log10(IC50), IC50 is the molar concentration at 50% inhibition; read-out: JAK3 pIC50 (converted)
T2 construct: purchased Invitrogen
T2 sequence (P52333 1-1124): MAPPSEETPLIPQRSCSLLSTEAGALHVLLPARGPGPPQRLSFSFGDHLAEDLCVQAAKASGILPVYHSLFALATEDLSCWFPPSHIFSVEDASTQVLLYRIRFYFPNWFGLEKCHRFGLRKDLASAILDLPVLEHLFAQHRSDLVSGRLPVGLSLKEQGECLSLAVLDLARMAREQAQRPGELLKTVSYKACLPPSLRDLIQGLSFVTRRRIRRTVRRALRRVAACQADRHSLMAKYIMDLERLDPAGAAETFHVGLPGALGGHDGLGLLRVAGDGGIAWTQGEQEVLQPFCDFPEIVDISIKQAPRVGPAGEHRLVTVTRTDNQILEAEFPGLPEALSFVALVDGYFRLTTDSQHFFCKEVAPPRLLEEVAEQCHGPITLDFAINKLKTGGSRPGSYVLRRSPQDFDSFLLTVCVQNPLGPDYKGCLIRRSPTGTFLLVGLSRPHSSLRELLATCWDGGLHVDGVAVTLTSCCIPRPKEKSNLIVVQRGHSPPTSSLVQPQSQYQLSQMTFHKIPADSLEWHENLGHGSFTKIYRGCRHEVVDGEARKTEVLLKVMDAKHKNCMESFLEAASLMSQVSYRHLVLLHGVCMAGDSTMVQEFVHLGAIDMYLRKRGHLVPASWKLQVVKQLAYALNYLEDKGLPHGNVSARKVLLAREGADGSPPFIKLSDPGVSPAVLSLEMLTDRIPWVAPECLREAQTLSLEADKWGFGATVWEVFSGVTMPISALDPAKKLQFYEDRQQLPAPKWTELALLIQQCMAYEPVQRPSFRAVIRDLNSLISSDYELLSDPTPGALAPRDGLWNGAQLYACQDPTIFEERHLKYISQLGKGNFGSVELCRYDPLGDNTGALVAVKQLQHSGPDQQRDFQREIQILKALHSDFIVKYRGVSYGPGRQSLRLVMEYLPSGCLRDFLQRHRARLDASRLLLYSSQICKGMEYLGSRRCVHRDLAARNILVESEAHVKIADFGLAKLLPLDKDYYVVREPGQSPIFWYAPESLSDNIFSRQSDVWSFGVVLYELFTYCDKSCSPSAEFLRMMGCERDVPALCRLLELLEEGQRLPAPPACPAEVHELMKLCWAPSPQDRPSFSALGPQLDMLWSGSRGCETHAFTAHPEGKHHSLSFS
Protocol: as §1, §2
as §3, with “15” for “45”, “1.2” for “0.6”, “JAK3” for “JAK2”, “HEPES,” for “HEPeX,”
as §4

T1 sequence (O60674 whole entry): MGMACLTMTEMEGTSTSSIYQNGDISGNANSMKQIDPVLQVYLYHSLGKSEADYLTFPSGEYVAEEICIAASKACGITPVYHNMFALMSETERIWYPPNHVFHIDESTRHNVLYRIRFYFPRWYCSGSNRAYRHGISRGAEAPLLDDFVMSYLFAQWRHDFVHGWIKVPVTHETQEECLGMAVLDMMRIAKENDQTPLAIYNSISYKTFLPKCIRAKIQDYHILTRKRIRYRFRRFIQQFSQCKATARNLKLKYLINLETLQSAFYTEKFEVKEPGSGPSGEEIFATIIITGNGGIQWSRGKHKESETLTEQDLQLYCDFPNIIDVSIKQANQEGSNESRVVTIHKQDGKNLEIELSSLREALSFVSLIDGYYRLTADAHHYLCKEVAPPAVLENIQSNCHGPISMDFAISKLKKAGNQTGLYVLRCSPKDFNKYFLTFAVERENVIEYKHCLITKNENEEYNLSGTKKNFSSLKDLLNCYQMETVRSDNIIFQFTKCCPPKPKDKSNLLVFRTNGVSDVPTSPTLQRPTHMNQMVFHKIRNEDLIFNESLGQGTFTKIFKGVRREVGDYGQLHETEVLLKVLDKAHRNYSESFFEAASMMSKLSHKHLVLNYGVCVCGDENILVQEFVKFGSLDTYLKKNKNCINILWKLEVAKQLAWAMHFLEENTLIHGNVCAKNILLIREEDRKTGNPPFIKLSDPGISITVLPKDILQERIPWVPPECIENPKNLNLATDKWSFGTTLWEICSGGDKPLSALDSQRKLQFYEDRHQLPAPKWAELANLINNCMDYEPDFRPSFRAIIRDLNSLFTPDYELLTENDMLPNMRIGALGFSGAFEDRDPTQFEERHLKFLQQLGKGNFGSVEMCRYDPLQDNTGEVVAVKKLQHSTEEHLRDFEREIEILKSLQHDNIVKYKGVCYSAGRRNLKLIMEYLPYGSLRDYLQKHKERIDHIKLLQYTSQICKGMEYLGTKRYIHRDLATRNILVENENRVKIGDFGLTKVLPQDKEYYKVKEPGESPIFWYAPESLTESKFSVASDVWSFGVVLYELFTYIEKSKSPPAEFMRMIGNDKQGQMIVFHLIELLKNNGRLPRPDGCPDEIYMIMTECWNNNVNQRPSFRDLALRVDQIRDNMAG

O=C1c2ccnc3[nH]cc(c23)CN1C1CCNCC1 [Example 2, 4-(piperidin-4-yl)-3,4-dihydropyrrolo[4,3,2-de][2,6]naphthyridin-5(1H)-one]
IC50 (JAK2): 6310 nM | IC50 (JAK3): 3980 nM

N#CCC(=O)N1CCC(N2Cc3c[nH]c4nccc(c34)C2=O)CC1 [Example 3, 3-oxo-3-(4-(5-oxopyrrolo[4,3,2-de][2,6]naphthyridin-4(1H,3H,5H)-yl)piperidin-1-yl)propanenitrile]
IC50 (JAK2): 794 nM | IC50 (JAK3): 1580 nM

CC1(N2Cc3c[nH]c4nccc(c34)C2=O)CCN(C(=O)CC#N)CC1 [Example 6, 3-(4-methyl-4-(5-oxopyrrolo[4,3,2-de][2,6]naphthyridin-4(1H,3H,5H)-yl)piperidin-1-yl)-3-oxopropanenitrile]
IC50 (JAK2): 79.4 nM | IC50 (JAK3): 501 nM

CCC1(N2Cc3c[nH]c4nccc(c34)C2=O)CCN(C(=O)CC#N)CC1 [Example 9, 3-(4-ethyl-4-(5-oxopyrrolo[4,3,2-de][2,6]naphthyridin-4(1H,3H,5H)-yl)piperidin-1-yl)-3-oxopropanenitrile]
IC50 (JAK2): 20 nM | IC50 (JAK3): 10 nM

CCC(CC)N1Cc2c[nH]c3nccc(c23)C1=O [Example 10, 4-(pentan-3-yl)-3,4-dihydropyrrolo[4,3,2-de][2,6]naphthyridin-5(1H)-one]
IC50 (JAK2): 79.4 nM | IC50 (JAK3): 100 nM

O=C1c2ccnc3[nH]cc(c23)CN1C(CCO)C1CC1 (stereo not shown) [Example 11, 4-(1-cyclopropyl-3-hydroxypropyl)-3,4-dihydropyrrolo[4,3,2-de][2,6]naphthyridin-5(1H)-one]
IC50 (JAK2): 398 nM | IC50 (JAK3): 316 nM

CC(C)(C)OC(=O)N1CCC(CN2Cc3c[nH]c4nccc(c34)C2=O)C1 (stereo not shown) [Example 12, Tert-Butyl 3-((5-oxopyrrolo[4,3,2-de][2,6]naphthyridin-4(1H,3H,5H)-yl)methyl)pyrrolidine-1-carboxylate]
IC50 (JAK2): 3160 nM | IC50 (JAK3): 7940 nM

O=C1c2ccnc3[nH]cc(c23)CN1CC1CCNC1 (stereo not shown) [Example 13, 4-(pyrrolidin-3-ylmethyl)-3,4-dihydropyrrolo[4,3,2-de][2,6]naphthyridine-5(1H)-one]
IC50 (JAK2): 5010 nM | IC50 (JAK3): 3160 nM

CCC(=O)N1CCC(CC)(N2Cc3c[nH]c4nccc(c34)C2=O)CC1 [Example 16, 4-(4-ethyl-1-propionylpiperidin-4-yl)-3,4-dihydropyrrolo[4,3,2-de][2,6]naphthyridin-5(1H)-one]
IC50 (JAK2): 10 nM | IC50 (JAK3): 50.1 nM

CCC1(N2Cc3c[nH]c4nccc(c34)C2=O)CCN(c2ccncn2)CC1 [Example 17, 4-(4-ethyl-1-(pyrimidin-4-yl)piperidin-4-yl)-3,4-dihydropyrrolo[4,3,2-de][2,6]naphthyridin-5(1H)-one]
IC50 (JAK2): 5.01 nM | IC50 (JAK3): 12.6 nM

CC[C@@H](C(=O)N1CCCC1)N1Cc2ccnc3[nH]cc(c23)C1=O [Example 18, (S)-4-(1-oxo-1-(pyrrolidin-1-yl)butan-2-yl)-4,5-dihydropyrrolo[4,3,2-de][2,6]naphthyridin-3(1H)-one]
IC50 (JAK2): 20000 nM | IC50 (JAK3): 20000 nM

CC[C@H](C(=O)N1CCCC1)N1Cc2ccnc3[nH]cc(c23)C1=O [Example 19, (R)-4-(1-oxo-1-(pyrrolidin-1-yl)butan-2-yl)-4,5-dihydropyrrolo[4,3,2-de][2,6]naphthyridin-3(1H)-one]
IC50 (JAK2): 3980 nM | IC50 (JAK3): 316 nM

CC(C)[C@H](C(=O)N1CCCC1)N1Cc2ccnc3[nH]cc(c23)C1=O [Example 20, (R)-4-(3-methyl-1-oxo-1-(pyrrolidin-1-yl)butan-2-yl)-4,5-dihydropyrrolo[4,3,2-de][2,6]naphthyridin-3(1H)-one]
IC50 (JAK2): 1580 nM | IC50 (JAK3): 79.4 nM

CC(C)C[C@H](C(=O)N1CCCC1)N1Cc2ccnc3[nH]cc(c23)C1=O [Example 21, (R)-4-(4-methyl-1-oxo-1-(pyrrolidin-1-yl)pentan-2-yl)-4,5-dihydropyrrolo[4,3,2-de][2,6]naphthyridin-3(1H)-one]
IC50 (JAK2): 794 nM | IC50 (JAK3): 126 nM
